Laboratory results reported in ChEMBL document CHEMBL3045802, “Synthesis and in vitro antitumor activity of new quinoline, pyrimido[4,5-b]quinoline, [1,2,3]triazino[4,5-b]quinoline, and [1,2,4]triazolo[2,3:3,4]pyrimido[6,5-b]quinoline analogs” (2013).

Assays:
Type in all cases: functional
SK-MEL-5 = experiment: Cytotoxicity against Homo sapiens (human) SK-MEL-5 cells assessed as growth inhibition at 10 uM after 48 hr by coulter counter analysis; conditions: SK-MEL-5, 48 h, read-out: GI
UACC-257 = experiment: Cytotoxicity against Homo sapiens (human) UACC257 cells assessed as growth inhibition at 10 uM after 48 hr by coulter counter analysis; conditions: UACC-257, 48 h, read-out: GI
HOP-92 = experiment: Cytotoxicity against Homo sapiens (human) HOP92 cells assessed as growth inhibition at 10 uM after 48 hr by coulter counter analysis; conditions: HOP-92, 48 h, read-out: GI
SR = experiment: Cytotoxicity against Homo sapiens (human) SR cells assessed as growth inhibition at 10 uM after 48 hr by coulter counter analysis; conditions: read-out: GI
HCT-116 = experiment: Cytotoxicity against Homo sapiens (human) HCT116 cells assessed as growth inhibition at 10 uM after 48 hr by coulter counter analysis; conditions: HCT-116, 48 h, read-out: GI
HOP-62 = experiment: Cytotoxicity against Homo sapiens (human) HOP62 cells assessed as growth inhibition at 10 uM after 48 hr by coulter counter analysis; conditions: HOP-62, 48 h, read-out: GI
EKVX = experiment: Cytotoxicity against Homo sapiens (human) EKVX cells assessed as growth inhibition at 10 uM after 48 hr by coulter counter analysis; conditions: read-out: GI
COLO 205 = experiment: Cytotoxicity against Homo sapiens (human) COLO205 cells assessed as growth inhibition at 10 uM after 48 hr by coulter counter analysis; conditions: COLO 205, 48 h, read-out: GI
SK-MEL-28 = experiment: Cytotoxicity against Homo sapiens (human) SK-MEL-28 cells assessed as growth inhibition at 10 uM after 48 hr by coulter counter analysis; conditions: SK-MEL-28, 48 h, read-out: GI
NCI-H460 = experiment: Cytotoxicity against Homo sapiens (human) NCI-H460 cells assessed as growth inhibition at 10 uM after 48 hr by coulter counter analysis; conditions: NCI-H460, 48 h, read-out: GI
HL-60(TB) = experiment: Cytotoxicity against Homo sapiens (human) HL-60(TB) cells assessed as growth inhibition at 10 uM after 48 hr by coulter counter analysis; conditions: HL-60, 48 h, read-out: GI
SF-539 = experiment: Cytotoxicity against Homo sapiens (human) SF539 cells assessed as growth inhibition at 10 uM after 48 hr by coulter counter analysis; conditions: SF-539, 48 h, read-out: GI
Malme-3M = experiment: Cytotoxicity against Homo sapiens (human) MALME-3M cells assessed as growth inhibition at 10 uM after 48 hr by coulter counter analysis; conditions: read-out: GI
A549 = experiment: Cytotoxicity against Homo sapiens (human) A549 cells assessed as growth inhibition at 10 uM after 48 hr by coulter counter analysis; conditions: A549, 48 h, read-out: GI
K562 = experiment: Cytotoxicity against Homo sapiens (human) K562 cells assessed as growth inhibition at 10 uM after 48 hr by coulter counter analysis; conditions: K562, 48 h, read-out: GI
OVCAR-3 = experiment: Cytotoxicity against Homo sapiens (human) OVCAR3 cells assessed as growth inhibition at 10 uM after 48 hr by coulter counter analysis; conditions: OVCAR-3, 48 h, read-out: GI
RPMI-8226 = experiment: Cytotoxicity against Homo sapiens (human) RPMI8226 cells assessed as growth inhibition at 10 uM after 48 hr by coulter counter analysis; conditions: RPMI-8226, 48 h, read-out: GI
NCI-H226 = experiment: Cytotoxicity against Homo sapiens (human) NCI-H226 cells assessed as growth inhibition at 10 uM after 48 hr by coulter counter analysis; conditions: NCI-H226, 48 h, read-out: GI
A498 = experiment: Cytotoxicity against Homo sapiens (human) A498 cells assessed as growth inhibition at 10 uM after 48 hr by coulter counter analysis; conditions: A498, 48 h, read-out: GI
HT-29 = experiment: Cytotoxicity against Homo sapiens (human) HT-29 cells assessed as growth inhibition at 10 uM after 48 hr by coulter counter analysis; conditions: HT-29, 48 h, read-out: GI
SNB-19 = experiment: Cytotoxicity against Homo sapiens (human) SNB19 cells assessed as growth inhibition at 10 uM after 48 hr by coulter counter analysis; conditions: SNB-19, 48 h, read-out: GI
SN12C = experiment: Cytotoxicity against Homo sapiens (human) SN12C cells assessed as growth inhibition at 10 uM after 48 hr by coulter counter analysis; conditions: read-out: GI
CCRF-CEM = experiment: Cytotoxicity against Homo sapiens (human) CCRF-CEM cells assessed as growth inhibition at 10 uM after 48 hr by coulter counter analysis; conditions: read-out: GI
BT-549 = experiment: Cytotoxicity against Homo sapiens (human) BT549 cells assessed as growth inhibition at 10 uM after 48 hr by coulter counter analysis; conditions: BT-549, 48 h, read-out: GI
NCI-H522 = experiment: Cytotoxicity against Homo sapiens (human) NCI-H522 cells assessed as growth inhibition at 10 uM after 48 hr by coulter counter analysis; conditions: NCI-H522, 48 h, read-out: GI
T47D = experiment: Cytotoxicity against Homo sapiens (human) T47D cells assessed as growth inhibition at 10 uM after 48 hr by coulter counter analysis; conditions: read-out: GI
SW-620 = experiment: Cytotoxicity against Homo sapiens (human) SW620 cells assessed as growth inhibition at 10 uM after 48 hr by coulter counter analysis; conditions: SW-620, 48 h, read-out: GI
HCC 2998 = experiment: Cytotoxicity against Homo sapiens (human) HCC2998 cells assessed as growth inhibition at 10 uM after 48 hr by coulter counter analysis; conditions: HCC 2998, 48 h, read-out: GI
OVCAR-5 = experiment: Cytotoxicity against Homo sapiens (human) OVCAR5 cells assessed as growth inhibition at 10 uM after 48 hr by coulter counter analysis; conditions: OVCAR-5, 48 h, read-out: GI
NCI-H23 = experiment: Cytotoxicity against Homo sapiens (human) NCI-H23 cells assessed as growth inhibition at 10 uM after 48 hr by coulter counter analysis; conditions: NCI-H23, 48 h, read-out: GI
DU-145 = experiment: Cytotoxicity against Homo sapiens (human) DU145 cells assessed as growth inhibition at 10 uM after 48 hr by coulter counter analysis; conditions: DU-145, 48 h, read-out: GI
MDA-MB-435 = experiment: Cytotoxicity against Homo sapiens (human) MDA-MB-435 cells assessed as growth inhibition at 10 uM after 48 hr by coulter counter analysis; conditions: MDA-MB-435, 48 h, read-out: GI
[1] = Cytotoxicity against Homo sapiens (human) NCI-ADR-RES cells assessed as growth inhibition at 10 uM after 48 hr by coulter counter analysis; conditions: read-out: GI
SK-MEL-2 = experiment: Cytotoxicity against Homo sapiens (human) SK-MEL-2 cells assessed as growth inhibition at 10 uM after 48 hr by coulter counter analysis; conditions: SK-MEL-2, 48 h, read-out: GI

## COc1ccc(C2C3=C(CCCC3)Nc3nc(-c4ccc(N(C)C)cc4)[nH]c(=O)c32)cc1OC (configuration not stated)
SK-MEL-5
  inhibition of growth at 10 µM: < 10%
UACC-257
  inhibition of growth at 10 µM: < 10%
HOP-92
  inhibition of growth at 10 µM: < 10%
SR
  inhibition of growth at 10 µM: < 10%
HCT-116
  inhibition of growth at 10 µM: < 10%
HOP-62
  inhibition of growth at 10 µM: < 10%
EKVX
  inhibition of growth at 10 µM: < 10%
COLO 205
  inhibition of growth at 10 µM: < 10%
SK-MEL-28
  inhibition of growth at 10 µM: < 10%
NCI-H460
  inhibition of growth at 10 µM: < 10%
HL-60(TB)
  inhibition of growth at 10 µM: < 10%
SF-539
  inhibition of growth at 10 µM: < 10%
Malme-3M
  inhibition of growth at 10 µM: < 10%
A549
  inhibition of growth at 10 µM: < 10%
K562
  inhibition of growth at 10 µM: < 10%
OVCAR-3
  inhibition of growth at 10 µM: < 10%
RPMI-8226
  inhibition of growth at 10 µM: < 10%
NCI-H226
  inhibition of growth at 10 µM: 13.6%
A498
  inhibition of growth at 10 µM: 21.7%
HT-29
  inhibition of growth at 10 µM: < 10%
SNB-19
  inhibition of growth at 10 µM: < 10%
SN12C
  inhibition of growth at 10 µM: 12.9%
CCRF-CEM
  inhibition of growth at 10 µM: < 10%
BT-549
  inhibition of growth at 10 µM: < 10%
NCI-H522
  inhibition of growth at 10 µM: 14.4%
T47D
  inhibition of growth at 10 µM: 14.9%
SW-620
  inhibition of growth at 10 µM: < 10%
HCC 2998
  inhibition of growth at 10 µM: < 10%
OVCAR-5
  inhibition of growth at 10 µM: < 10%
NCI-H23
  inhibition of growth at 10 µM: < 10%
DU-145
  inhibition of growth at 10 µM: < 10%
MDA-MB-435
  inhibition of growth at 10 µM: < 10%
[1]
  inhibition of growth at 10 µM: < 10%
SK-MEL-2
  inhibition of growth at 10 µM: < 10%

## Clc1ccc(C2C3=C(CCCC3)Nc3ncn4nc(-c5ccccc5)nc4c32)cc1 (configuration not stated)
SK-MEL-5
  inhibition of growth at 10 µM: < 10%
UACC-257
  inhibition of growth at 10 µM: < 10%
HOP-92
  inhibition of growth at 10 µM: 14%
SR
  inhibition of growth at 10 µM: < 10%
HCT-116
  inhibition of growth at 10 µM: < 10%
HOP-62
  inhibition of growth at 10 µM: 16%
EKVX
  inhibition of growth at 10 µM: < 10%
COLO 205
  inhibition of growth at 10 µM: 11.5%
SK-MEL-28
  inhibition of growth at 10 µM: < 10%
NCI-H460
  inhibition of growth at 10 µM: < 10%
HL-60(TB)
  inhibition of growth at 10 µM: < 10%
SF-539
  inhibition of growth at 10 µM: < 10%
Malme-3M
  inhibition of growth at 10 µM: < 10%
A549
  inhibition of growth at 10 µM: < 10%
K562
  inhibition of growth at 10 µM: < 10%
OVCAR-3
  inhibition of growth at 10 µM: < 10%
RPMI-8226
  inhibition of growth at 10 µM: 12.3%
NCI-H226
  inhibition of growth at 10 µM: 15.2%
A498
  inhibition of growth at 10 µM: 20.6%
HT-29
  inhibition of growth at 10 µM: 14.4%
SNB-19
  inhibition of growth at 10 µM: < 10%
SN12C
  inhibition of growth at 10 µM: < 10%
CCRF-CEM
  inhibition of growth at 10 µM: < 10%
BT-549
  inhibition of growth at 10 µM: < 10%
NCI-H522
  inhibition of growth at 10 µM: 23.5%
T47D
  inhibition of growth at 10 µM: 14.7%
SW-620
  inhibition of growth at 10 µM: < 10%
HCC 2998
  inhibition of growth at 10 µM: < 10%
OVCAR-5
  inhibition of growth at 10 µM: < 10%
NCI-H23
  inhibition of growth at 10 µM: 11.7%
DU-145
  inhibition of growth at 10 µM: < 10%
MDA-MB-435
  inhibition of growth at 10 µM: < 10%
[1]
  inhibition of growth at 10 µM: < 10%
SK-MEL-2
  inhibition of growth at 10 µM: < 10%

## Oc1ccc(-c2nc3c4c(ncn3n2)NC2=C(CCCC2)C4c2ccc(Cl)cc2)cc1 (configuration not stated)
SK-MEL-5
  inhibition of growth at 10 µM: < 10%
UACC-257
  inhibition of growth at 10 µM: < 10%
HOP-92
  inhibition of growth at 10 µM: 42.1%
SR
  inhibition of growth at 10 µM: < 10%
HCT-116
  inhibition of growth at 10 µM: < 10%
HOP-62
  inhibition of growth at 10 µM: 16.6%
EKVX
  inhibition of growth at 10 µM: < 10%
COLO 205
  inhibition of growth at 10 µM: < 10%
SK-MEL-28
  inhibition of growth at 10 µM: < 10%
NCI-H460
  inhibition of growth at 10 µM: < 10%
HL-60(TB)
  inhibition of growth at 10 µM: 13.5%
SF-539
  inhibition of growth at 10 µM: < 10%
Malme-3M
  inhibition of growth at 10 µM: 13%
A549
  inhibition of growth at 10 µM: < 10%
K562
  inhibition of growth at 10 µM: < 10%
OVCAR-3
  inhibition of growth at 10 µM: < 10%
RPMI-8226
  inhibition of growth at 10 µM: 13.2%
NCI-H226
  inhibition of growth at 10 µM: < 10%
A498
  inhibition of growth at 10 µM: 25.1%
HT-29
  inhibition of growth at 10 µM: < 10%
SNB-19
  inhibition of growth at 10 µM: < 10%
SN12C
  inhibition of growth at 10 µM: < 10%
CCRF-CEM
  inhibition of growth at 10 µM: 13.2%
BT-549
  inhibition of growth at 10 µM: < 10%
NCI-H522
  inhibition of growth at 10 µM: < 10%
T47D
  inhibition of growth at 10 µM: 15.8%
SW-620
  inhibition of growth at 10 µM: < 10%
HCC 2998
  inhibition of growth at 10 µM: < 10%
OVCAR-5
  inhibition of growth at 10 µM: < 10%
NCI-H23
  inhibition of growth at 10 µM: 12.9%
DU-145
  inhibition of growth at 10 µM: < 10%
MDA-MB-435
  inhibition of growth at 10 µM: < 10%
[1]
  inhibition of growth at 10 µM: < 10%
SK-MEL-2
  inhibition of growth at 10 µM: < 10%
